Measured values: publication PMC9495681, “Examining Topoisomers of a Snake-Venom-Derived Peptide for Improved Antimicrobial and Antitumoral Properties” (Biomedicines, 2022)
Converted amounts (≈) assume the structure as drawn. Square brackets hold non-standard residues; d marks the D form. Peptide text beside a SMILES is read from it.

Assays:
Serum stability = assay type: in vitro ADME; settings: 0.5 mL each of human serum (Sigma-Aldrich) and peptide (1 mM in water), 37 °C with stirring, 24 h (1440 min), trichloroacetic acid treatment, HPLC / LC-MS; read-out: Peptide remaining in human serum after 24 h
Method: Briefly, 0.5 mL each of human serum (Sigma-Aldrich, St. Louis, MO, USA) and peptide (1 mM in water) were mixed and incubated for 24 h at 37 °C with stirring. Aliquots (0.1 mL) were taken at 0, 1, 5, 10, 30, 120, 360 and 1440 min and treated with 20 μL of trichloroacetic acid (15% (v/v) in water). The suspension was centrifuged for 30 min at 4 °C and 13,000 rpm, and the supernatant was analyzed by HPLC as described above.

1BR3G human fibroblasts = assay: Peptide cytotoxicity (Cell Titer Blue viability); assay type: cell-based; settings: 24 h treatment, medium with 2% FBS, Cell Titer Blue fluorescence, triplicate
Source text: (§1) Human HeLa S3 (cervix epithelial carcinoma), leukemia Jurkat E6.1 (T-cell lineage), U937 (histiocytic lymphoma), THP-1 (acute monocytic leukemia), and 1BR3G human fibroblasts were obtained from the Cell Lines Repository of the Institut Municipal d’Investigació Medica (Barcelona, Spain). BxPC3 (pancreas adenocarcinoma), A549 (lung carcinoma), SH-Sy5Y (neuroblastoma), Panc1 (epithelioid carcinoma), 786-O (renal cell adenocarcinoma), and HT29 (colorectal adenocarcinoma) were obtained from the Integrative Biomedical Materials and Nanomedicine lab at UPF (Barcelona, Spain). HeLa S3, Jurkat E6.1, U937, THP-1, Panc1, and 786-O were cultured in Roswell Park Memorial Institute medium (RPMI) supplemented with 10% fetal bovine serum (FBS) and 1% penicillin/streptomycin solution and maintained at 37 °C in a humidified atmosphere with 5% of CO2. 1BR3G, BxPC3, A549, and HT29 were cultured in Dulbecco’s Modified Eagle’s Medium (DMEM) supplemented with 10% FBS and 1% penicillin/streptomycin solution and maintained at 37 °C in a humidified atmosphere with 5% of CO2. SH-Sy5Y was cultured in DMEM supplemented with 15% FBS and 1% penicillin/streptomycin and maintained at 37 °C in a humidified atmosphere with 5% of CO2. Cultures were maintained at 10^5–10^6 cell/mL densities. For 1BR3G human fibroblasts, BxPC3, A549, SH-Sy5Y, Panc1, 786-O, and HT29 were split every time they reached 80–90% of confluence after harvesting with PBS and trypsin.
(§2) About 60,000 cells were added to different microfuge tubes containing 2-fold serial dilution of the peptide, with a final concentration in the range between 0.1–100 μM in RPMI containing 2% of FBS. After 30 min incubation at 37 °C and 5% of CO2, […] of medium containing approximately 10,000 treated cells were transferred to a 96-well plate. Then, 15 μL of Cell Titer Blue dye (Promega, Madison, WI, USA) was added, and plates were reincubated for 24 h. Fluorescence was read at 4 and 24 h after dye addition in a Synergy HTX (BioTek, Winooski, VT, USA) reader, with λexc = 560 nm and λem = 620 nm. In the case of adherent cultures, 5000 cells/well were seeded in 96-well plates. After 24 h incubation at 37 °C and 5% of CO2, the medium was removed, and a new medium with 2% of FBS containing the various 2-fold dilution of the peptides was added. After a further 30 min, 15 μL of Cell Titer Blue dye was added to each well, and the measurement was done as above. Relative viability was calculated relative to a cell with only 2% FBS in the corresponding medium as a control (100% viability). All assays were conducted in triplicate.

E. coli (BW25113) = assay: Minimal inhibitory concentration (MIC), broth microdilution; assay type: cell-based; settings: Mueller Hinton Broth, 5 × 10^5 CFU/mL, 0.04% BSA and 0.002% acetic acid, 20–22 h at 37 °C, duplicate
Method: (§3) Assays were performed on three Gram-negative bacteria: E. coli (BW25113, Coli Genetic Stock Center), A. baumannii (ATCC 15308, CECT, Valencia, Spain), and Pseudomonas sp. (ATCC15915, CECT). The minimal inhibitory concentration (MIC) of each peptide was determined as described by Wiegand et al.. Peptide stocks in water were added to polypropylene 96-well plates (Greiner, Frickenhausen, Germany) and serially diluted from 100 to 0.2 μM. Fresh bacteria were incubated at 37 °C in Mueller Hinton Broth (MHB, Condalab, Torrejón de Ardoz, Spain) up to exponential growth and diluted to a final inoculum of 5 × 10^5 CFU/mL. BSA and acetic acid at 0.04% (w/v) and 0.002% (v/v) final concentration, respectively, were added to avoid peptide self-aggregation. Plates were incubated for 20–22 h at 37 °C. Each peptide was tested in duplicate. MIC values were the lowest peptide concentration where bacterial growth was not detected.

[1] = test system: A. baumannii (ATCC 15308); assay: as above; assay type: cell-based; settings: Mueller Hinton Broth, 5 × 10^5 CFU/mL, 0.04% BSA and 0.002% acetic acid, 20–22 h at 37 °C, duplicate
Method: as §3

[2] = test system: Pseudomonas sp. (ATCC15915); assay: as above; assay type: cell-based; settings: Mueller Hinton Broth, 5 × 10^5 CFU/mL, 0.04% BSA and 0.002% acetic acid, 20–22 h at 37 °C, duplicate
Method: as §3

human erythrocytes = assay: Hemolytic activity; assay type: cell-based; settings: up to 100 μM; 4% (v/v) human erythrocytes in PBS, 30 min at 37 °C, OD 540 nm, triplicate
Method: Fresh human blood (10 mL) was collected in EDTA tubes and centrifuged at 1000× g for 10 min at 4 °C. After plasma removal, the pellet containing the erythrocytes was washed 3× with phosphate-buffered saline (PBS) and resuspended to an 8% (v/v) suspension in PBS. Then, 100 μL of the suspension was added to a final concentration of 4% (v/v) to microfuge tubs containing 2-fold serially diluted peptides (0.2–100 μM). The suspension was incubated for 30 min at 37 °C with agitation, then centrifuged for 2 min at 1000× g. The supernatant was transferred to 96-well plates, and hemoglobin was measured by OD at 540 nm in a Synergy HTX plate reader (BioTek). Positive and negative controls were 1% (v/v) Triton X-100 and untreated erythrocytes (4% v/v in PBS), respectively. Measurements were done in triplicate. Hemolysis was calculated as:(2) % Hemolysis=[OD540peptide]−[OD540PBS]/[OD540Triton]−[OD540PBS]·100

[3] = test system: BxPC3, A549, Panc1, 786-O, and HT29; assay: Peptide cytotoxicity (Cell Titer Blue viability), non-leukemia cell lines of Figure 2; assay type: cell-based, Human; settings: peptide treatment 24 h, triplicate, read-out: IC50, other cancer cell lines (non-leukemia, other than SH-Sy5Y)
Source text: Human HeLa S3 (cervix epithelial carcinoma), leukemia Jurkat E6.1 (T-cell lineage), U937 (histiocytic lymphoma), THP-1 (acute monocytic leukemia), and 1BR3G human fibroblasts were obtained from the Cell Lines Repository of the Institut Municipal d’Investigació Medica (Barcelona, Spain). BxPC3 (pancreas adenocarcinoma), A549 (lung carcinoma), SH-Sy5Y (neuroblastoma), Panc1 (epithelioid carcinoma), 786-O (renal cell adenocarcinoma), and HT29 (colorectal adenocarcinoma) were obtained from the Integrative Biomedical Materials and Nanomedicine lab at UPF (Barcelona, Spain). HeLa S3, Jurkat E6.1, U937, THP-1, Panc1, and 786-O were cultured in Roswell Park Memorial Institute medium (RPMI) supplemented with 10% fetal bovine serum (FBS) and 1% penicillin/streptomycin solution and maintained at 37 °C in a humidified atmosphere with 5% of CO2. […]
About 60,000 cells were added to different microfuge tubes containing 2-fold serial dilution of the peptide, with a final concentration in the range between 0.1–100 μM in RPMI containing 2% of FBS. […] Fluorescence was read at 4 and 24 h after dye addition in a Synergy HTX (BioTek, Winooski, VT, USA) reader, with λexc = 560 nm and λem = 620 nm. […] Relative viability was calculated relative to a cell with only 2% FBS in the corresponding medium as a control (100% viability). […]

Jurkat E6.1 = assay: Peptide cytotoxicity (Cell Titer Blue viability); assay type: cell-based, Human; settings: peptide treatment 24 h, medium with 2% FBS, Cell Titer Blue fluorescence, triplicate
Source text: as §1, §2

HeLa S3 = assay: Peptide cytotoxicity (Cell Titer Blue viability); assay type: cell-based, Human; settings: peptide treatment 24 h, medium with 2% FBS, Cell Titer Blue fluorescence, triplicate
Source text: as §1, §2

SH-Sy5Y (neuroblastoma) = assay: Peptide cytotoxicity (Cell Titer Blue viability); assay type: cell-based, Human; settings: peptide treatment 24 h, medium with 2% FBS, Cell Titer Blue fluorescence, triplicate
Source text: as §1, §2

THP-1 = assay: Peptide cytotoxicity (Cell Titer Blue viability); assay type: cell-based, Human; settings: peptide treatment 24 h, medium with 2% FBS, Cell Titer Blue fluorescence, triplicate
Source text: as §1, §2

U937 = assay: Peptide cytotoxicity (Cell Titer Blue viability); assay type: cell-based, Human; settings: peptide treatment 24 h, medium with 2% FBS, Cell Titer Blue fluorescence, triplicate
Source text: as §1, §2

Structure (SMILES) | remaining at 24 h, 0.5 mM (Serum stability) | IC50 (cell viability) human fibroblast 1BR3G (1BR3G human fibroblasts) | MIC E. coli (E. coli (BW25113)) | MIC A. baumannii [1] | MIC Pseudomonas sp. [2] | Hemolytic effect (in words) (human erythrocytes) | IC50 [3] | IC50 (Jurkat E6.1) | IC50 (HeLa S3) | IC50 (SH-Sy5Y (neuroblastoma)) | IC50 (THP-1) | IC50 (U937)
CC[C@@H](C)[C@@H](NC(=O)CNC(=O)[C@H](NC(=O)[C@H](NC(=O)[C@H](NC(=O)[C@H]1CCCN1C(=O)[C@H](N)Cc1ccccc1)[C@H](C)CC)[C@H](C)O)C(C)C)C(=O)N[C@@H](C(=O)N[C@H](CCSC)C(=O)N1CCC[C@@H]1C(=O)N[C@H](CCCCN)C(=O)N[C@H](CCCCN)C(=O)N[C@H](Cc1ccccc1)C(=O)N[C@@H](C(=O)N[C@H](CCCCN)C(=O)N[C@H](CCCCN)C(=O)N[C@H](CC(C)C)C(=O)N[C@H](CCCNC(=N)N)C(=O)N[C@H](CCCCN)C(=O)N[C@H](CCCCN)C(=O)N[C@@H](C(=O)N[C@H](CO)C(=O)N[C@H](CCCCN)C(=O)N[C@H](CCCCN)C(=O)N[C@@H](C(=O)N[C@H](CCCCN)C(=O)N[C@H](CCCCN)C(=O)N[C@H](Cc1ccccc1)C(=O)N[C@H](Cc1ccccc1)C(=O)N[C@H](CCCCN)C(=O)N[C@H](CCCCN)C(=O)N[C@H](Cc1ccccc1)C(=O)N[C@H](CCCNC(=N)N)C(=O)N[C@H](CCCCN)C(N)=O)C(C)C)C(C)C)[C@H](C)CC)C(C)C [Ctn retroenantio] (H-[dF][dP][dI][dT][dV]G[dI][dV][dM][dP][dK][dK][dF][dI][dK][dK][dL][dR][dK][dK][dV][dS][dK][dK][dV][dK][dK][dF][dF][dK][dK][dF][dR][dK]-NH2) | 40% | 4300 nM | 0.78 µM (≈ 3.24 µg/mL) | 1.56 µM (≈ 6.48 µg/mL) | 0.78 µM (≈ 3.24 µg/mL) | – | – | – | – | – | – | –
CC[C@H](C)[C@H](NC(=O)[C@H](CCCCN)NC(=O)[C@H](CCCCN)NC(=O)[C@H](CC(C)C)NC(=O)[C@H](CCCNC(=N)N)NC(=O)[C@H](CCCCN)NC(=O)[C@@H](N)CCCCN)C(=O)N[C@@H](Cc1ccccc1)C(=O)N[C@@H](CCCCN)C(=O)N[C@@H](CCCCN)C(=O)N1CCC[C@H]1C(=O)N[C@@H](CCSC)C(=O)N[C@H](C(=O)N[C@H](C(=O)NCC(=O)N[C@H](C(=O)N[C@H](C(=O)N[C@H](C(=O)N1CCC[C@H]1C(=O)N[C@@H](Cc1ccccc1)C(N)=O)[C@@H](C)CC)[C@@H](C)O)C(C)C)[C@@H](C)CC)C(C)C [Ctn[15-34]] (H-KKRLKKIFKKPMVIGVTIPF-NH2) | – | ≈ 14.32 μM | <0.005 µM | 0.78 µM (≈ 1.85 µg/mL) | <0.05 µM | totally nonhemolytic | – | – | – | – | – | –
CC[C@H](C)[C@H](NC(=O)[C@H](CCCCN)NC(=O)[C@H](CCCCN)NC(=O)[C@H](CC(C)C)NC(=O)[C@H](CCCNC(=N)N)NC(=O)[C@H](CCCCN)NC(=O)[C@H](CCCCN)NC(=O)[C@@H](NC(=O)[C@H](CO)NC(=O)[C@H](CCCCN)NC(=O)[C@H](CCCCN)NC(=O)[C@@H](NC(=O)[C@H](CCCCN)NC(=O)[C@H](CCCCN)NC(=O)[C@H](Cc1ccccc1)NC(=O)[C@H](Cc1ccccc1)NC(=O)[C@H](CCCCN)NC(=O)[C@H](CCCCN)NC(=O)[C@H](Cc1ccccc1)NC(=O)[C@H](CCCNC(=N)N)NC(=O)[C@@H](N)CCCCN)C(C)C)C(C)C)C(=O)N[C@@H](Cc1ccccc1)C(=O)N[C@@H](CCCCN)C(=O)N[C@@H](CCCCN)C(=O)N1CCC[C@H]1C(=O)N[C@@H](CCSC)C(=O)N[C@H](C(=O)N[C@H](C(=O)NCC(=O)N[C@H](C(=O)N[C@H](C(=O)N[C@H](C(=O)N1CCC[C@H]1C(=O)N[C@@H](Cc1ccccc1)C(N)=O)[C@@H](C)CC)[C@@H](C)O)C(C)C)[C@@H](C)CC)C(C)C [Ctn] (H-KRFKKFFKKVKKSVKKRLKKIFKKPMVIGVTIPF-NH2) | – | – | – | 0.78 µM (≈ 3.24 µg/mL) | <0.05 µM | – | ≥ 10000 nM | < 1000 nM | ~3470 nM | ~2610 nM | < 1000 nM | < 1000 nM
